Values quoted from earlier work as cited in patent US20060040940A1, “Imidazopyridines pyrimidines and triazines for enhancing cognition as gaba-a-alphas 5 receoptor subtype ligands” (priority 2001, published 2006).

Experiments:
benzodiazepine receptor [1] = settings: reported in Psychobiology, 21:101-108
benzodiazepine receptor [2] = settings: background statement

Question: With `COC(=O)c1cc2c(cn1)[nH]c1ccccc12` [β-CCM] as the molecule, how does the “spatial learning in the Morris watermaze” value (benzodiazepine receptor [1]) read?
Answer: enhanced spatial learning

Question: What about the proconvulsant effect (benzodiazepine receptor [2]) of the same molecule?
Answer: proconvulsant
